Results as given in US9518300B2, “Composition and method for treating a hematological malignancy” (Dana-Farber Cancer Institute, Inc., priority 2014, dated 2016).

Key:
H929 cells = experiment: Dexamethasone sensitivity of H929 cells co-cultured with HS-5 BMSCs (CAM-DR); assay type: cell-based, human; conditions: H929 with HS-5 cells 48 h, 200 nM dexamethasone, control cel-miR-67
From the text: Reasoning that CD44 is a downstream target of Wnt/β-catenin/BCL9 transcriptional complex, and that miR-30c downregulates expression of CD44 in MM cells (FIG. 3B), and that CD44 is a functional component of cell adhesion-mediated drug resistance (CAM-DR), we investigated the possible role of miR-30s in MM drug resistance in the context of a bone marrow (BM) microenvironment. After ectopic overexpression of miR-30c or miR-30a/b/c/d/e cocktail (miR-30mix) or a negative control (cel-miR-67) in H929 cells, we co-cultured these cells alone or in the presence of HS-5 cells for 48 h and treated them with 200 nM dexamethasone.

CD138+ primary cells = experiment: Proliferation of patient CD138+ primary MM cells, [3H] thymidine uptake; assay type: cell-based, human; conditions: 40 pmol
Procedure: Cell proliferation was assessed by [^3H] thymidine uptake as described (1). For apoptosis, cells were stained with Annexin-V-Fluos (Boehringer, Mannheim, Germany). Stained cells were analyzed by flow cytometry, and data were analyzed by use of CellQuest (Becton-Dickinson, Sunnyvale, Calif.). Cell invasion and migration assays were done as described (2).
(§1) In order to verify miR-30's potential for therapy in MM patients, CD138+ primary cells (n=3) were transfected with 40 pmol of mature miR-30c or same amount of cel-miR-67 as control.

[1] = μCT of bone in mice not transplanted with myeloma cells; assay type: in vivo; conditions: SCID mice not transplanted, 10 days of treatment, versus vehicle
Procedure: Micro-computed topographic (μCT) imaging was performed on the L4-L6 vertebrae of the intact spine of a subset of mice using a high-resolution desktop imaging system (μCT40, Scanco Medical AG, Bruttisellen, Switzerland). Scans were acquired using a 12 μm^3 isotropic voxel size, 70 kVp peak x-ray tube potential, and 200 ms integration time. Cortical and trabecular bone micro architecture was quantified in the 5th lumbar vertebral body in a region beginning 120 μm below the cranial growth plate and ending 120 μm above the caudal growth plate. To assess cortical lesions, we determined the cortical bone volume (Ct.BV) and total volume (Ct.TV) of the ventral face of the vertebral body. Cortical void fraction (%) was calculated as 1−(Ct.BV/Ct.TV)*100 and represents the percent of the ventral face that was void of bone. Trabecular bone volume fraction (Tb.BV/Tb.TV, %) was measured in the region of interest. […]
Micro-computed topographic (μCT) imaging was performed on the L4-L6 vertebrae of the intact spine of a subset of mice using a high-resolution desktop imaging system ([…], Scanco Medical AG, Bruttisellen, Switzerland). […] Cortical and trabecular bone micro architecture was quantified in the 5th lumbar vertebral body in a region beginning 120 μm below the cranial growth plate and ending 120 μm above the caudal growth plate. […]

BCL9 [2] = experiment: BCL9 and Wnt target gene expression after ectopic miR-30 expression (Q-RT-PCR, immunoblot, IF); assay type: cell-based, human; conditions: H929 cells
From the text: We next investigated whether BCL9 mRNA expression is regulated by miR-30s in MM cells using both gain- and loss-of function studies. For gain-of-function studies we used H929 cells that express the lowest levels of miR-30s among the MM cell lines examined (FIG. 1C).
We first induced ectopic expression of individual V-miR-30s family members in H929 cells using lentiviral infection. After flow sorting of GFP positive cells, levels of miR-30s were verified by Q-RT-PCR (FIG. 3A) and then used in subsequent experiments.

BCL9 [3] = experiment: Transient transfection of mature miR-30c, BCL9 immunoblot in RPMI8226 cells; assay type: cell-based, human; conditions: increasing amounts of mature miR-30c, 72 hours, control cel-miR-67
Procedure: To exclude the possibility that the observed changes in BCL9 expression may be due to non specific and/or secondary effects of stable transfection of V-miR-30c, we also performed transient transfection with increasing amounts of mature miR-30c into RPMI8226 cells, using cel-miR-67 as a control (FIG. 3F).
To confirm transfection efficiency, cells were collected 72 hours after transfection, and miR-30c expression levels were checked by Q-RT-PCR (FIG. 3F, top). We found an inverse association between downregulation of BCL9 protein expression and increasing amounts of transfected mature miR-30c (FIG. 3F, bottom).

BCL9 [4] = experiment: Transfection of patient CD138+ primary cells, IF of BCL9, CD44, Axin2; assay type: cell-based, human; conditions: CD138+ primary cells (n=3), 40 pmol, control cel-miR-67
From the text: as §1

For “miR-30c: microRNA, UGUAAACAUCCUACACUCUCAGC (SEQ ID NO: 3 / 29) (listed as RNA, chemistry not given here; listed as Homo sapiens)”, the “sensitivity to dexamethasone treatment” value (H929 cells) was “resensitize”, the MM cell proliferation (CD138+ primary cells) was “dramatically inhibited” and the bone osteolytic lesions [1] was “No apparent development”. For the same substance, the “expression of BCL9 mRNA” value (BCL9 [2]) was “significant reduction”, the “expression of Wnt pathway downstream targets CD44 and Axin2” value (BCL9 [2]) was “reduced expression” and the BCL9 protein expression (BCL9 [3]) was “downregulation”. For the same substance, the “expression of BCL9, CD44 and Axin2” value (BCL9 [4]) was “downregulated”.
